{
  "source": "paper PMC7922564",
  "about": "“Molecular Insights into an Antibiotic Enhancer Action of New Morpholine-Containing 5-Arylideneimidazolones in the Fight against MDR Bacteria” (International Journal of Molecular Sciences, 2021)",
  "origin": "cited, not measured here",
  "set-up_in_all_cases": "method as in earlier work",
  "key": {"S. aureus ATCC 25923": {"test_system": "S. aureus ATCC 25923", "conditions": "published previously, cited from earlier work"}, "[1]": {"test_system": "K. aerogenes Ea-294, Ea-308", "conditions": "doxycycline, chloramphenicol, norfloxacin, already published, cited from earlier work"}, "K. aerogenes CM-64": {"test_system": "K. aerogenes CM-64", "conditions": "doxycycline, chloramphenicol, norfloxacin, already published, cited from earlier work"}},
  "data": [
    {"smiles": "NC1=N/C(=C\\c2cccc(Oc3ccccc3)c2)C(=O)N1CCCN1CCOCC1", "note": "[Compound 16]", "values": [
      {"measurement": "MIC reduction", "setting": "S. aureus ATCC 25923; oxacillin alone to oxacillin + compound", "result": "No effect"},
      {"measurement": "A (activity gain)", "setting": "S. aureus ATCC 25923; oxacillin", "result": 1},
      {"measurement": "MIC reduction", "setting": "[1]; erythromycin + compound", "result": "No effect"},
      {"measurement": "A (activity gain)", "setting": "[1]; erythromycin", "result": 1},
      {"measurement": "MIC reduction", "setting": "K. aerogenes CM-64; erythromycin + compound", "result": "No effect"},
      {"measurement": "A (activity gain)", "setting": "K. aerogenes CM-64; erythromycin", "result": 1}
    ]}
  ]
}
